Data on 2 compounds can be found in patent EP4635969A1, “NOVEL GLUCOCORTICOID, METHOD FOR PREPARING SAME, AND USE THEREOF” (Tianjin Pharmaceutical Biotechnology Co., Ltd., priority 2022, dated 2024).

In data set [1] the test system is IL-17. Briefly: Psoriasis experiment (imiquimod model): inflammatory cytokine in serum (ELISA). It counts as in vivo, mice. The following applies: for level of IL-17 / inflammatory cytokines in psoriasis model mice: compared with the model group; for IL-17: serum, day 8 of modeling, 0.2 g cream per mouse daily for 7 days. A general note: ELISA stands for enzyme-linked immunosorbent assay.
Experimental: Positive control drug: Fluticasone Propionate Cream (specification: 0.05% × 15 g, Zhejiang Xianju Pharmaceutical Co. Ltd., Lot No. 211106), stored at room temperature protected from light until use.
Adult mice were selected, and the skin of 2 cm × 3 cm on the back of mice was locally depilated. The mice in the model group and drug administration group were applied with 62.5 mg of 5% imiquimod cream on their back for modeling, while the mice in the blank control group were applied with medical petroleum jelly on their back daily. The above procedures were performed once a day for 7 consecutive days.
The mice in the drug administration group were applied with the corresponding drugs on their backs daily at a dose of 0.2 g per mouse, while the blank control group and the model group were only applied with 0.2 g of the test sample drug matrix. One hour after drug administration, the drugs were wiped off with sterile cotton swabs, followed by the application of imiquimod. The above procedures were performed once a day for 7 consecutive days.
After the PASI scoring on day 8 of modeling, blood was collected from the orbital sinus of mice and centrifuged at 3000 rpm for 10 min. The supernatant was extracted to measure the level of IL-17. All procedures were performed following the instructions of the ELISA kit.
Statistical analysis was performed using SPSS software, and the results were expressed as mean ± standard deviation. One-way ANOVA was used for intergroup comparisons. For data with homogeneous variance, the LSD test was used; for data with heterogeneous variance, the Dunnett-t test was used. A value of P < 0.05 was considered statistically significant.

For data set [2] the following is noted: after entering the systemic circulation; cited from earlier work.
For data set [3], the system named is psoriasis model mice. In words: Psoriasis experiment (imiquimod model): skin lesion (PASI) score. As to conditions: for PASI scores: compared with the model group; for PASI score: day 8 of modeling, 0.2 g cream per mouse daily for 7 days (compounds 1 mg/g, fluticasone propionate 0.5 mg/g). The data set is classed as in vivo.
Data set [4] is described as follows: Stability in animal lung tissue homogenate, skin tissue homogenate and aqueous humor. The data set is classed as in vitro ADME.
The nature of data set [5]: Determination of stability in plasma in vitro, mouse plasma (LC-MS/MS). It counts as in vitro ADME. The following applies: 37 °C, read-out: Half-life T1/2 (min) in plasma of different species, Mouse plasma. As for the experimental part: (§1) Pharmacological Example 3: Determination of Stability in Plasma in Vitro
(§2) The stock solution was diluted with acetonitrile to obtain a working solution at a concentration of 100 µ M. The solution should be freshly prepared prior to use and maintained at room temperature during application.
(§3) 990 µ L of human and mouse plasma (N = 2) were separately pipetted and pre-incubated at 37 °C for 5 min. Then, 10 µ L of the test compound working solution was added and vortexed thoroughly (the final concentration of the test compound was 1 µ M). Immediately, 50 µ L of the plasma sample was added to 150 µ L of ice-cold precipitation agent containing the internal standard and vortexed thoroughly as the 0-time sample. The remaining plasma sample was continuously incubated at 37 °C, and 50 µ L of the plasma sample was aspirated and added to 150 µ L of ice-cold precipitation agent containing the internal standard at preset sampling time points, followed by thorough vortexing. The collected samples were stored in a freezer at -60 to -90 °C until analysis.
(§4) The concentration of the test compound was determined by LC-MS/MS, and its degradation was monitored. (semi-quantitative determination was conducted by comparing the peak area of the analyte to that of the internal standard).

Data set [6] has as its target T1, mineralocorticoid receptor (MR) (Homo sapiens, UniProt P08235).
T1 sequence (P08235 726-984): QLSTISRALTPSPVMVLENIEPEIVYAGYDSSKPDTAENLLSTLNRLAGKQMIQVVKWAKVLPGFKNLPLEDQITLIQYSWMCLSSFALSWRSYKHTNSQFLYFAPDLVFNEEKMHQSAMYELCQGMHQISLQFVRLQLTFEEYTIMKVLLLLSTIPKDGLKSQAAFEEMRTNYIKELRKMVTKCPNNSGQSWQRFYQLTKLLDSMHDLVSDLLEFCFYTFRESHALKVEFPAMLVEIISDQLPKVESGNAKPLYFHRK
Briefly: Assay for agonist activity on mineralocorticoid receptor (luciferase reporter, HEK293 cells transfected with pBIND-MR plasmid). The data set is classed as cell-based. Put shortly:
(§5)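 HEK293 cells transiently transfected with pBIND-MR or pBIND-PR, seeded in phenol red-free DMEM with 5% charcoal-stripped serum. Compounds tested as 12-point 4-fold dilutions from 50 µM in duplicate, 0.1% DMSO blank. Luciferase luminescence read, EC50 by nonlinear fit.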
For orientation: In a reporter assay the amount or activity of a reporter protein is the signal.

Data set [7] concerns the target T2, progesterone receptor (PR) (Homo sapiens, UniProt P06401).
T2 sequence (P06401 678-933): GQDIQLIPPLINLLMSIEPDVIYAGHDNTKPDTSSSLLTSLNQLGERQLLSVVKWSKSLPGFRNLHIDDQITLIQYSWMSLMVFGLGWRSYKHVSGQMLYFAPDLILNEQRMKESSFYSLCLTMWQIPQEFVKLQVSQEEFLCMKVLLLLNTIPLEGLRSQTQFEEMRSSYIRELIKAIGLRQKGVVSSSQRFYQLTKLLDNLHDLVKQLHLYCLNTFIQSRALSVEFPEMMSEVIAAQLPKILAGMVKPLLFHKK
In words: Assay for agonist activity on progesterone receptor (luciferase reporter, HEK293 cells transfected with pBIND-PR plasmid). The data set is classed as cell-based. Put shortly:
as §5

Data set [8] in a line: Pharmacokinetic (PK) experiment in rats. The data set is classed as in vivo, male SD rats. As to conditions: male, SD, rat, plasma, single. On the procedure:
Pharmacological Example 11. Pharmacokinetic (PK) Experiment in Rats
The solution was prepared before administration.
Animals: 6 male SD rats, SPF grade (Beijing Vital River Laboratory Animal Technology Co., Ltd.).
Animal grouping: The animals were weighed prior to administration, and the dosage was calculated based on body weight. The animals in the oral administration group were fasted overnight (10-14 hours) before administration, and food was reintroduced 4 hours post-administration. Table 23. Animal grouping and drug administration dosages for pharmacokinetic (PK) experiment in rats
Blood collection time points: Blood was collected from the jugular vein at 2 min, 5 min, 15 min, 30 min, 1 h, 2 h, 4 h, 8 h, and 24 h after administration. Approximately 0.25 mL of blood was collected for each sample, anticoagulated with heparin sodium, and then placed on ice immediately.
Plasma sample processing: Blood samples were placed on ice after collection and centrifuged to separate plasma within 1 hour (centrifugation conditions: 6000 rpm, 3 minutes, 2-8 °C ). Plasma samples were stored in a -80°C freezer before analysis.
Data processing: Pharmacokinetic parameters were calculated using Phoenix WinNonlin 8.2.0 based on the plasma drug concentration data at different time points.

In data set [9] the test system is asthma model mice. In words: Anti-asthma pharmacodynamic experiment: airway hyperresponsiveness (Penh) after methacholine challenge. The data set is classed as in vivo, female BALB/c mice.
Data set [10] can be described thus: Determination of stability in plasma in vitro, human plasma (LC-MS/MS). As to conditions: human, human plasma, 1 µM, 37 °C; read-out: Half-life T1/2 (min) in plasma of different species, Human plasma. It counts as in vitro ADME. On the procedure:
as §1, §2, §3, §4

In data set [11] the test system is inflammatory cytokines IL-6 and IL-12. In words: Anti-asthma pharmacodynamic experiment: inflammatory cytokines in bronchoalveolar lavage fluid (ELISA). It counts as in vivo, female BALB/c mice.
The mark [12] stands for this setting: bronchoalveolar lavage fluid, 0.3 mg/mL, 50 µL intratracheally once daily for 3 days.

Molecules are shown by their SMILES.

By EC50 is commonly meant the concentration that produces a half-maximal response. A higher EC50 goes with a less potent agent. The AUC(0-t) is exposure summed from dosing to a finite time, without extrapolation to infinity. As a reminder, the Cmax is the peak of the concentration-time curve.

As to `CCC(=O)O[C@]1(C(=O)SCF)[C@H](C)C[C@H]2[C@@H]3C[C@H](F)C4=CC(=O)C=C[C@]4(C)[C@@]3(F)[C@@H](O)C[C@@]21C` [Fluticasone propionate, reference compound], in data set [1], the “level of IL-17 / inflammatory cytokines in psoriasis model mice” value was “significantly decreased the level of IL-17” and the “IL-17” value came out at 25.04 ± 10.02 pg/mL. The “plasma half-life in the human body” value in data set [2] is 3 h. Besides, in data set [3], the PASI scores result is recorded as “PASI scores significantly decreased on day 7” and the PASI score came out at 4.0 ± 0.6.

`C[C@]12C=CC(=O)C=C1[C@@H](F)C[C@H]1[C@@H]3C[C@H]4OC(c5ccc(CSC6CCOC6=O)cc5)O[C@@]4(C(=O)CO)[C@@]3(C)C[C@H](O)[C@@]12F` (stereo partly drawn) [Compound 8, (2S,6aS,6bR,7S,8aS,8bS,11aR,12aS,12bS)-2,6b-Difluoro-7-hydroxy-8b-(2-hydroxyacetyl)-6a,8a-dimethyl-10-(4-(((2-oxotetrahydrofuran-3-yl)thio)methyl)phenyl)-1,2,6a,6b,7,8,8a,8b,11a,12,12a, 12b-dodecahydro-4H-naphtho[2',1':4,5]indeno[1,2-d][1,3]dioxol-4-one]: the “stability in animal lung tissue homogenate, skin tissue homogenate, and aqueous humor” value in data set [4] was “relatively stable”. In [5], the half-life at 1 µM is less than 30 min. This compound also had an EC50 in data set [6] greater than 50 µM. Moreover, in data set [1], the “level of IL-17 / inflammatory cytokines in psoriasis model mice” value is recorded as “significantly decreased the level of IL-17” and the “IL-17” value is recorded as 53.35 ± 64.19 pg/mL. Also, the EC50 in data set [7] was greater than 50 µM. In addition, in [8] (iv, 2 mg/kg), the AUC(0-t) worked out at 0.106 ± 0.0359 µg·h/mL and the half-life is less than 0.5 h. In data set [8] (po, 10 mg/kg, gavage), the AUC(0-t) is less than 0.07 µg·h/mL and the half-life was 5.21 ± 3.17 h. The compound further had a Cmax in [8] (IV, 2 mg/kg) of 0.924 ± 0.504 µg/mL. In data set [8] (PO, 10 mg/kg, gavage), this compound had a Cmax of 0.0235 ± 0.0144 µg/mL. For the same compound, the “Penh values in mice, Methacholine concentration (mg/ml) 0” value in data set [9] (0.3 mg/mL, 50 µL intratracheally once daily for 3 days, methacholine 0 mg/ml) worked out at 1.17 ± 0.23. In addition, the “Penh values in mice, Methacholine concentration (mg/ml) 6.25” value in [9] (0.3 mg/mL, 50 µL intratracheally once daily for 3 days, methacholine 6.25 mg/ml) worked out at 1.78 ± 0.46. For the same compound, in data set [9] (0.3 mg/mL, 50 µL intratracheally once daily for 3 days, methacholine 12.5 mg/ml), the “Penh values in mice, Methacholine concentration (mg/ml) 12.5” value is 2.07 ± 0.66. Also, the “Effects on airway hyperresponsiveness (Penh values) in mice” value in data set [9] (compared with the model group) was “significantly decreased the Penh values in mice”. In data set [10], the half-life at 1 µM is less than 30 min. For the same compound, in [11] (setting [12]), the “IL-6” value is recorded as 19.9 ± 5.3 pg/mL and the “IL-12” value came to 20.1 ± 7.1 pg/mL. The “Effects on inflammatory cytokines in bronchoalveolar lavage fluid of mice” value in data set [11] (compared with the model group) was “extremely significantly decreased the levels of IL-6 and IL-12 in mice”. Also, in [3], the PASI scores result is recorded as “PASI scores significantly decreased on day 7” and the PASI score was 4.8 ± 1.3.
